Here are results for eleven compounds from US4766147A, “Novel 5-membered cyclic compounds, process for production thereof, and pharmaceutical use thereof” (priority 1982, dated 1988).

Values after ≈ are worked out from the molar mass of the structure shown.

Data set [1] deals with L1210 leukemia cells. The experiment in a line: Inhibiting proliferation of L1210 leukemia cell. It is filed as cell-based. As to conditions: Mus musculus, 96 h, 1×10^5 cells/ml, RPMI with 10% FCS, 37° C., 4 days, trypan blue. The method, then:
Measurement of the Action of Inhibiting Proliferation of L1210 Leukemia Cell
L1210 leukemia cells were added to an RPMI medium containing 10% FCS (fetal calf serum), and the concentration of the cells was adjusted to 1×10^5 cells/ml. Each of the test compounds shown in Table 5 was dissolved in 99.5% ethanol. Prior to use, the final concentration of the ethanol solution was adjusted to less than 0.1%, and it was added to the culture medium. The culture medium was then maintained at 37° C. in a stationary condition for 4 days. After the cultivation, the number of surviving cells was measured by dyeing with trypan blue. As a control, 0.1% ethanol was used. A dose-reaction curve was plotted from the ratios of proliferation against the control, and IC50 was determined.

In data set [2] the test system is mouse leukemia cell L1210. Conditions: Biochem. Biophys. Res. Commn., 105, 956 (1982); cited from earlier work.
The nature of a further data set: Acute toxicity. As to conditions: mouse, in vivo, iv, four weeks old LR strain male mice (SPF). The method, then:
Measurement of Acute Toxicity
The acute toxicity of one typical compound of this invention was measured by a customary method using four weeks old LR strain male mice (SPF).

The test system of data set [3] is L1210 leukemia cells. The experiment in a line: Cyto protection: cytotoxicity on L1210 leukemia cells and safety coefficient. As to conditions: for Safety coefficient: LD50 on the normal cells/LD50 on the L1210 cells. It is filed as cell-based, mouse. Here is the method: (§1) Measurement of Cyto Protection
(§2) Stomach epithelial cells taken from a rabbit fetus and aortic smooth muscle cells from a rat were used as normal cells, and L1210 leukemia cells were used as cancer cells. The cytotoxicity of each of the compounds shown in Table 6 on the normal cells was xamined.
The cytotoxicities LD50) of each of the test compounds on the stomach epithelial cells and the aortic smooth muscle cells were determined.

Data set [4] in a line: Cyto protection: cytotoxicity on stomach epithelial cells. It is filed as cell-based. Conditions: stomach epithelial cells; rabbit fetus cells, DME containing 20% FCS; read-out: LD50 Stomach epitherial cells. The method, then: as §1, §2
(§3) Specifically, the stomach epithelial cells were cultivated in DME containing 20% FCS, and the aortic smooth muscle cells were cultivated in MEM containing 10% CS. Each of the test compounds was dissolved in ethanol and added to the culture broth in an amount of 0.1%. The mixture was filtered through a millipore filter.
(§4) The cytotoxicities LD50) of each of the test compounds on the stomach epithelial cells and the aortic smooth muscle cells were determined. Furthermore, from the LFD50 values, the safety coefficient (LD50 on the normal cells/LD50 on the L1210 cells) was calculated, and the results are also shown in Table 6.

Data set [5] is described as follows: Cyto protection: cytotoxicity on aortic smooth muscle cells. It is filed as cell-based. Conditions: aortic smooth muscle cells; rat cells, MEM containing 10% CS; read-out: LD50 Aortic smooth muscle cells. Here is the method:
as §1, §2, §3, §4

In data set [6] the test system is Ehrlich ascites carcinoma cells. The data set is described as follows: Antitumor effect on Ehrlich ascites carcinoma in ICR mice. Conditions: 30 mg/kg/day i.p. (methyl ester) or 20 mg/kg/day i.p. (12-epimer) for 5 days; for average number of days of survival: from 24 hours after tumor inoculation. The format is in vivo. The method, then:
Measurement of the Antitumor Effect On Ehrich Ascites Carcinoma
1×10^5 Ehrlich ascites carcinoma cells were intraperitoneally administred to ICR mice. After the lapse of 24 hours, 30 mg/kg/day of 7(E)-7,8-dehydroprostaglandin A1 methyl ester and 20 mg/kg/day of its 12-epimer were each intraperitoneally administered to the mice for 5 days. The periods of survival of these animals were examined.

The next data set deals with Stomach epithelial cells. The data set is described as follows: Cyto protection: cytotoxicity on stomach epithelial cells. The format is cell-based. Conditions: rabbit fetus cells, DME containing 20% FCS. Here is the method:
as §1, §2, §3, §4

Data set [7] deals with aortic smooth muscle cells. The experiment in a line: Cyto protection: cytotoxicity on aortic smooth muscle cells. The format is cell-based. As to conditions: rat cells, MEM containing 10% CS. The method, then:
as §1, §2, §3, §4

`CCCCCCC=CC1C=CC(=O)C1=CCCCCCC(=O)OC` (stereo not shown) [4-(1-octenyl)-5-(6-methoxycarbonylhexylidene)-2-cyclopentenone] showed an IC50 with L1210 leukemia cells [1] of 0.3 µg/mL (≈ 0.902 µM).

For the compound `CCCCC[C@H](O)/C=C/[C@H]1C(=O)C[C@H](O)[C@@H]1C/C=C\CCCC(=O)O` [PGD2], the “IC50 of PGD2 on L1210 cell” value in data set [2] is on record as 2.4 micrograms/ml.

On to `CCCCC[C@H](O)/C=C/[C@H]1C=CC(=O)/C1=C/CCCCCC(=O)O` [7(E)-7,8-Dehydroprostaglandin A1], for which the LD50 (in general, the dose at which mortality reaches 50%) in “Acute toxicity” stood at 140 mg/kg. For the same compound, the IC50 is 0.4 µg/mL (≈ 1.2 µM) with L1210 leukemia cells [1] and 0.2 to 0.3 µg/mL (≈ 0.598 to 0.897 µM) with L1210 leukemia cells [3] (Mus musculus, L1210, cancer cells, read-out: LD50 L1210 leukemia cells). Further, in the data set on L1210 leukemia cells [3], the Safety coefficient is given as 6-25. Besides, the CC50 in data set [4] and in data set [5] was 2 to 5 µg/mL (≈ 5.98 to 14.9 µM) each time.

For `CCCCC[C@H](O)/C=C/[C@@H]1C=CC(=O)/C1=C/CCCCCC(=O)OC` [12-epi-(7E)-7,8-dehydro PGA1 methyl ester], the IC50 with L1210 leukemia cells [1] stood at 0.2 µg/mL (≈ 0.574 µM). In data set [6], the “increase of life span (ILS %) over the control” value turned out to be 76.5%, the “ratio of survival for more than 60 days” value is recorded as 1/6 and the “average number of days of survival” value amounted to 33.0 ± 9.8 days.

`CCCCC[C@H](O)/C=C/[C@H]1C=CC(=O)/C1=C/CCCCCC(=O)OC` [(7E)-7,8-dehydro PGA1 methyl ester]: in data set [6], the “increase of life span (ILS %) over the control” value came to 65.8%, the “ratio of survival for more than 60 days” value is recorded as 2/6 and the “average number of days of survival” value amounted to 31 ± 1.9 days.

As for `CCCCC[C@H](O)/C=C/[C@@H]1/C(=C\CCCCCC(=O)O)C(=O)C[C@H]1O` [7(E)-7,8-Dehydroprostaglandin E1], the IC50 with L1210 leukemia cells [1] turned out to be 0.7 µg/mL (≈ 1.99 µM).

In turn, `COC(=O)CCCC#CC=C1C(=O)C=CC1C=CC(O)C1CCCC1` (stereo not shown) [4-(3-Hydroxy-3-cyclopentyl-1-propenyl)-5-(6-methoxycarbonyl-2-hexynylidene)-2-cyclopentenone] gave an IC50 with L1210 leukemia cells [1] of 0.3 µg/mL (≈ 0.876 µM).

Consider `COC12C(COC(N)=O)C3=C(C(=O)C(C)=C(N)C3=O)N1CC1NC12` (stereo not shown) [Mytomycin C, reference compound], for which the CC50 in [4] is 0.01 to 0.02 µg/mL (≈ 0.0299 to 0.0598 µM); in data set [5], 0.01 µg/mL (≈ 0.0299 µM).

On to `CCCCCC(O)C=CC1C=CC(=O)C1=CCCCCCC(=O)O` (stereo not shown) [12-Epimer of 7(E)-7,8-dehydroprostaglandin A1], for which, in the data set with L1210 leukemia cells [3], the Safety coefficient was 2.5-10. Besides, in the data set on L1210 leukemia cells [3] (cancer cells), the “LD50 L1210 leukemia cells” value is 0.2 to 0.4 µg/mL. In addition, the “LD50 Stomach epitherial cells” value in the data set with Stomach epithelial cells was 1 to 2 µg/mL. The “LD50 Aortic smooth muscle cells” value in data set [7] is 1 to 2 µg/mL.

`CCCCC1C=CC(=O)C1=CCCCCCC(=O)OC` (stereo not shown) [4-Butyl-5-(6-methoxycarbonylhexylidene)-2-cyclopentenone] had an IC50 with L1210 leukemia cells [1] of 0.3 µg/mL (≈ 1.08 µM).

For the compound `COC(=O)CCCC#CC(O)C1C(=O)C=CC1C=CC(O)C1CCCC1` (stereo not shown) [4-(3-hydroxy-3-cyclopentyl-1-propenyl)-5-(1-hydroxy-6-methoxycarbonyl-2-hexyn-1-yl)-2-cyclopentenone], the IC50 in the data set with L1210 leukemia cells [1] worked out at 0.2 µg/mL (≈ 0.555 µM).
